Assay results: patent US20230331673A1, “COMPOSITION OF COMPOUNDS THAT MODULATE CELL METABOLISM AND METHODS OF USE” (CRESCENTA BIOSCIENCES, priority 2020, published 2023)

Each compound was assayed on differentiated 3T3-L1 mouse adipocyte cells (assay: Adipocyte glucose consumption in differentiated 3T3-L1 mouse adipocyte cells (loss of glucose from medium, colorimetric)). Details: compound 10 μM, 22 to 24 hours, differentiated 3T3-L1 adipocytes, compound/DMSO, read-out: Glucose consumption (fold change) Mean.
Type: cell-based
Description: Activity of compounds on adipocyte glucose consumption was tested in differentiated 3T3-L1 mouse adipocyte cells. 3T3-L1 preadipocytes (ATCC) were routinely cultured in a growth medium composed of DMEM high-glucose (Sigma), 10% FBS (Gibco), 10 U/ml penicillin and 10 μg/ml streptomycin (P/S; Gibco). To induce adipogenic differentiation, a confluent layer of 3T3-L1 cells were incubated with the growth medium containing 2 μM rosiglitazone, 1 μM dexamethasone, 500 μM IBMX, and 1 μg/ml insulin (Sigma). Forty-eight (48) hours later (on day 2) and on days 4 and 6, medium of the cells was replaced with fresh medium containing 1 μg/ml insulin. On days 8 and 10, the medium was refreshed with regular growth medium and addition of insulin was omitted. On day 11 or 12, medium of the cells were replaced with fresh medium containing either the indicated compounds (10 μM) or the vehicle in which the compounds were dissolved (DMSO). The final concentration of DMSO was 0.1% (v/v). Growth medium containing 0.1% DMSO was incubated in culture wells containing no cells and used as control. Twenty-two to 24 hours later, medium was harvested and subjected to centrifugation at 10,000 g for 5 min. Glucose concentration in the supernatants was determined using a colorimetric assay (Glucose Assay Kit I, Eton Biosciences). Glucose consumption in compound and vehicle treated cells was measured as loss of glucose from the culture medium and represented as mean fold change (compound/DMSO) t standard deviation (SD).

Going from `CCCCC1CCCc2c1n(Cc1cccc(C(N)=O)c1)c1c(C(=O)O)cccc21` (stereo not shown) [1-butyl-9-[(3-carbamoylphenyl)methyl]-2,3,4,9-tetrahydro-1H-carbazole-8-carboxylic acid] to `CCCCC1CCc2c1n(Cc1cccc(C(N)=O)c1)c1c(C(=O)O)cccc21` (stereo not shown) [3-butyl-4-[(3-carbamoylphenyl)methyl]-1H,2H,3H,4H-cyclopenta[b]indole-5-carboxylic acid], the fold induction at 10 µM rises from 1.02 to 1.15.

First: CCCCC1CCCc2c1n(Cc1cccc(C#N)c1)c1c(C(=O)O)cccc21 (stereo not shown) [1-butyl-9-[(3-cyanophenyl)methyl]-2,3,4,9-tetrahydro-1H-carbazole-8-carboxylic acid]
Second: CCCCC1CCc2c1n(Cc1cccc(C#N)c1)c1c(C(=O)O)cccc21 (stereo not shown) [3-butyl-4-[(3-cyanophenyl)methyl]-1H,2H,3H,4H-cyclopenta[b]indole-5-carboxylic acid]
The fold induction at 10 µM of the first is lower: 1.14 for the first, 1.21 for the second.

First: CCCCC1CCCc2c(n(Cc3cccc(C(N)=O)c3)c3c(C(=O)NCC(=O)O)cccc23)C1 (stereo not shown) [2-({7-butyl-5-[(3-carbamoylphenyl)methyl]-5H,6H,7H,8H,9H,10H-cyclohepta[b]indol-4-yl}formamido)acetic acid]
Second: CCCCC1CCCc2c(n(Cc3cccc(C#N)c3)c3c(C(=O)NCC(=O)O)cccc23)C1 (stereo not shown) [2-({7-butyl-5-[(3-cyanophenyl)methyl]-5H,6H,7H,8H,9H,10H-cyclohepta[b]indol-4-yl}formamido)acetic acid]
The fold induction at 10 µM of the first is lower: 0.9 for the first, 1.2 for the second.

Compared with `CCCCC1Cc2c(n(Cc3cccc(C(N)=O)c3)c3c(C(=O)O)cccc23)C1` (stereo not shown) [2-butyl-4-[(3-carbamoylphenyl)methyl]-1H,2H,3H,4H-cyclopenta[b]indole-5-carboxylic acid], `CCCCCC1Cc2c(n(Cc3cccc(C(N)=O)c3)c3c(C(=O)O)cccc23)C1` (stereo not shown) [4-[(3-carbamoylphenyl)methyl]-2-pentyl-1H,2H,3H,4H-cyclopenta[b]indole-5-carboxylic acid] is lower in fold induction at 10 µM: 1.14 for the first, 0.68 for the second.

Going from `CCCCC1Cc2c(n(Cc3cccc(C#N)c3)c3c(C(=O)O)cccc23)C1` (stereo not shown) [2-butyl-4-[(3-cyanophenyl)methyl]-1H,2H,3H,4H-cyclopenta[b]indole-5-carboxylic acid] to `CCCCCC1Cc2c(n(Cc3cccc(C#N)c3)c3c(C(=O)O)cccc23)C1` (stereo not shown) [4-[(3-cyanophenyl)methyl]-2-pentyl-1H,2H,3H,4H-cyclopenta[b]indole-5-carboxylic acid], the fold induction at 10 µM falls from 1.28 to 1.18.

Going from `CCCCC1CCc2c(n(Cc3cccc(C(N)=O)c3)c3c(C(=O)O)cccc23)C1` (stereo not shown) [2-butyl-9-[(3-carbamoylphenyl)methyl]-2,3,4,9-tetrahydro-1H-carbazole-8-carboxylic acid] to `CCCCC1CCc2c(c3cccc(C(=O)O)c3n2Cc2cccc(C(N)=O)c2)C1` (stereo not shown) [3-butyl-9-[(3-carbamoylphenyl)methyl]-2,3,4,9-tetrahydro-1H-carbazole-8-carboxylic acid], the fold induction at 10 µM falls from 1.1 to 1.09.

First: CCCCCCC1CCc2c(n(Cc3ccnc(OC)c3)c3c(C(=O)O)cccc23)C1 (stereo not shown) [2-hexyl-9-[(2-methoxypyridin-4-yl)methyl]-2,3,4,9-tetrahydro-1H-carbazole-8-carboxylic acid]
Second: CCCCCCC1CCc2c(n(Cc3cccc(O)c3)c3c(C(=O)O)cccc23)C1 (stereo not shown) [2-hexyl-9-[(3-hydroxyphenyl)methyl]-2,3,4,9-tetrahydro-1H-carbazole-8-carboxylic acid]
The fold induction at 10 µM of the first is higher: 1.19 for the first, 1.11 for the second.

First: CCCCCCC1CCc2c(n(Cc3ccccc3C)c3c(C(=O)O)cccc23)C1 (stereo not shown) [2-hexyl-9-[(2-methylphenyl)methyl]-2,3,4,9-tetrahydro-1H-carbazole-8-carboxylic acid]
Second: CCCCCCC1CCCc2c(n(Cc3ccccc3F)c3c(C(=O)O)cccc23)C1 (stereo not shown) [5-[(2-fluorophenyl)methyl]-7-hexyl-5H,6H,7H,8H,9H,10H-cyclohepta[b]indole-4-carboxylic acid]
The fold induction at 10 µM of the first is higher: 1.23 for the first, 1.17 for the second.

First: CCCCCCC1CCc2c(n(Cc3cccnc3)c3c(C(=O)O)cccc23)C1 (stereo not shown) [2-hexyl-9-[(pyridin-3-yl)methyl]-2,3,4,9-tetrahydro-1H-carbazole-8-carboxylic acid]
Second: CCCCCCC1CCCc2c(n(Cc3cccc(Cl)c3)c3c(C(=O)O)cccc23)C1 (stereo not shown) [5-[(3-chlorophenyl)methyl]-7-hexyl-5H,6H,7H,8H,9H,10H-cyclohepta[b]indole-4-carboxylic acid]
The fold induction at 10 µM of the first is higher: 1.21 for the first, 1.18 for the second.

Going from `CCCCC1CCc2c(c3cccc(C(=O)O)c3n2Cc2cccc(C#N)c2)C1` (stereo not shown) [3-butyl-9-[(3-cyanophenyl)methyl]-2,3,4,9-tetrahydro-1H-carbazole-8-carboxylic acid] to `CCCCC1CCCc2c1c1cccc(C(=O)O)c1n2Cc1cccc(C#N)c1` (stereo not shown) [4-butyl-9-[(3-cyanophenyl)methyl]-2,3,4,9-tetrahydro-1H-carbazole-8-carboxylic acid], the fold induction at 10 µM rises from 1.14 to 1.28.

Going from `CCC1CCc2c1n(Cc1cccc(C(N)=O)c1)c1c(C(=O)O)cccc21` (stereo not shown) [4-[(3-carbamoylphenyl)methyl]-3-ethyl-1H,2H,3H,4H-cyclopenta[b]indole-5-carboxylic acid] to `CCCC1CCc2c1n(Cc1cccc(C(N)=O)c1)c1c(C(=O)O)cccc21` (stereo not shown) [4-[(3-carbamoylphenyl)methyl]-3-propyl-1H,2H,3H,4H-cyclopenta[b]indole-5-carboxylic acid], the fold induction at 10 µM rises from 1.02 to 1.18.

First: CCC1CCc2c1n(Cc1cccc(C#N)c1)c1c(C(=O)O)cccc21 (stereo not shown) [4-[(3-cyanophenyl)methyl]-3-ethyl-1H,2H,3H,4H-cyclopenta[b]indole-5-carboxylic acid]
Second: CCCC1CCc2c1n(Cc1cccc(C#N)c1)c1c(C(=O)O)cccc21 (stereo not shown) [4-[(3-cyanophenyl)methyl]-3-propyl-1H,2H,3H,4H-cyclopenta[b]indole-5-carboxylic acid]
The fold induction at 10 µM of the first is lower: 1.12 for the first, 1.38 for the second.

Compared with `CCCCC1CCCc2c1c1cccc(C(=O)O)c1n2Cc1cccc(C(N)=O)c1` (stereo not shown) [4-butyl-9-[(3-carbamoylphenyl)methyl]-2,3,4,9-tetrahydro-1H-carbazole-8-carboxylic acid], `CCCCCC1CCCCc2c1c1cccc(C(=O)O)c1n2Cc1cccc(C(N)=O)c1` (stereo not shown) [5-[(3-carbamoylphenyl)methyl]-10-pentyl-5H,6H,7H,8H,9H,10H-cyclohepta[b]indole-4-carboxylic acid] is lower in fold induction at 10 µM: 1.35 for the first, 1.27 for the second.

Compared with `CCCCCCC1CCCc2c(n(Cc3ccc4ncoc4c3)c3c(C(=O)O)cccc23)C1` (stereo not shown) [5-[(1,3-benzoxazol-6-yl)methyl]-7-hexyl-5H,6H,7H,8H,9H,10H-cyclohepta[b]indole-4-carboxylic acid], `CCCCCCC1CCCc2c(n(Cc3cccc(C(N)=O)c3)c3c(C(=O)O)cccc23)C1` (stereo not shown) [5-[(3-carbamoylphenyl)methyl]-7-hexyl-5H,6H,7H,8H,9H,10H-cyclohepta[b]indole-4-carboxylic acid] is higher in fold induction at 10 µM: 1.17 for the first, 1.26 for the second.

First: CCCCCCC1CCCc2c(n(Cc3ccccc3C(N)=O)c3c(C(=O)O)cccc23)C1 (stereo not shown) [5-[(2-carbamoylphenyl)methyl]-7-hexyl-5H,6H,7H,8H,9H,10H-cyclohepta[b]indole-4-carboxylic acid]
Second: CCCCCC1CCCc2c(n(Cc3cccc(C(N)=O)c3)c3c(C(=O)O)cccc23)C1 (stereo not shown) [5-[(3-carbamoylphenyl)methyl]-7-pentyl-5H,6H,7H,8H,9H,10H-cyclohepta[b]indole-4-carboxylic acid]
The fold induction at 10 µM of the first is lower: 0.97 for the first, 1.27 for the second.

Compared with `CCCCCCC1CCCc2c(n(Cc3c(C)noc3C)c3c(C(=O)O)cccc23)C1` (stereo not shown) [5-[(3,5-dimethyl-1,2-oxazol-4-yl)methyl]-7-hexyl-5H,6H,7H,8H,9H,10H-cyclohepta[b]indole-4-carboxylic acid], `CCCCCCC1CCCc2c(n(Cc3cccc(C(=O)O)c3)c3c(C(=O)O)cccc23)C1` (stereo not shown) [5-[(3-carboxyphenyl)methyl]-7-hexyl-5H,6H,7H,8H,9H,10H-cyclohepta[b]indole-4-carboxylic acid] is higher in fold induction at 10 µM: 0.95 for the first, 1.15 for the second.

Compared with `CCC1CCCc2c(n(Cc3cccc(C(N)=O)c3)c3c(C(=O)O)cccc23)C1` (stereo not shown) [5-[(3-carbamoylphenyl)methyl]-7-ethyl-5H,6H,7H,8H,9H,10H-cyclohepta[b]indole-4-carboxylic acid], `CCCC1CCCc2c(n(Cc3cccc(C(N)=O)c3)c3c(C(=O)O)cccc23)C1` (stereo not shown) [5-[(3-carbamoylphenyl)methyl]-7-propyl-5H,6H,7H,8H,9H,10H-cyclohepta[b]indole-4-carboxylic acid] is higher in fold induction at 10 µM: 0.96 for the first, 1.06 for the second.

First: CCCCCCCCC1CCCc2c(n(Cc3cccc(C(N)=O)c3)c3c(C(=O)O)cccc23)C1 (stereo not shown) [5-[(3-carbamoylphenyl)methyl]-7-octyl-5H,6H,7H,8H,9H,10H-cyclohepta[b]indole-4-carboxylic acid]
Second: CCCC1CCCCc2c1c1cccc(C(=O)O)c1n2Cc1cccc(C(N)=O)c1 (stereo not shown) [5-[(3-carbamoylphenyl)methyl]-10-propyl-5H,6H,7H,8H,9H,10H-cyclohepta[b]indole-4-carboxylic acid]
The fold induction at 10 µM of the first is higher: 1.13 for the first, 1.02 for the second.

`CCC1CCCCc2c1c1cccc(C(=O)O)c1n2Cc1cccc(C(N)=O)c1` (stereo not shown) [5-[(3-carbamoylphenyl)methyl]-10-ethyl-5H,6H,7H,8H,9H,10H-cyclohepta[b]indole-4-carboxylic acid] showed a fold induction at 10 µM of 0.99.
